Reference: patent EP0384722A1, “Chemical compositions” (PITMAN-MOORE LIMITED, priority 1989, dated 1990)

Experiment: Bioavailability in dogs of two injectable formulations (GF s/c, OS i/m) of Compound A and Sulphadimethoxine (serum levels)
Type: in vivo
Conditions: 30mg total a.i./kg
Experimental: GF = Solution in glycofurol of Compound A 2% w/v and sulphadimethoxine (SDM), 10% w/v; OS = Suspension in Miglyol 812 of Compound A, 2% w/v and SDM, 10% w/v
Six adult beagles (three male, three female, including Dogs 1 to 4 of Example 1) and six adult male cats, housed in Coopers' kennels were in all cases given a single injection at 30mg. total a.i./kg. bodyweight, i.e. 1ml./4kg. The glycofurol solution (GF) was injected s/c in the dorsal neck region and the oily suspension (OS) was injected i/m in the quadriceps (anterior thigh) muscles.
Blood samples (jugular venous samples or on some occasions from the cats, cephalic vein samples) were collected before and after injection at the times indicated in Tables 5 to 8).
A standard well-plate bio-assay method was used for Compound A, SDM being estimated by the Bratton-Marshall method. (The bio-assay method cannot distinguish between parent compound and any active metabolites present, but the results are expressed as mg/L Compound A).

Compound: COc1cc(NS(=O)(=O)c2ccc(N)cc2)nc(OC)n1 [SDM, sulphadimethoxine]
- Serum concentrations of SDM (dog No.1, GF s/c, 0 hours p.i.): 0 mg/L
- Serum concentrations of SDM (dog No.1, GF s/c, 1 hours p.i.): 82 mg/L
- Serum concentrations of SDM (dog No.1, GF s/c, 4 hours p.i.): 95 mg/L
- Serum concentrations of SDM (dog No.1, GF s/c, 7 hours p.i.): 99 mg/L
- Serum concentrations of SDM (dog No.1, GF s/c, 24 hours p.i.): 47 mg/L
- Serum concentrations of SDM (dog No.1, GF s/c, 28 hours p.i.): 34 mg/L
- Serum concentrations of SDM (dog No.1, GF s/c, 31 hours p.i.): 30 mg/L
- Serum concentrations of SDM (dog No.1, GF s/c, 48 hours p.i.): 24 mg/L
- Serum concentrations of SDM (dog No.1, GF s/c, 55 hours p.i.): 17 mg/L
- Serum concentrations of SDM (dog No.1, GF s/c, 72 hours p.i.): 14 mg/L
- Serum concentrations of SDM (dog No.2, OS i/m, 0 hours p.i.): 0 mg/L
- Serum concentrations of SDM (dog No.2, OS i/m, 1 hours p.i.): 5 mg/L
- Serum concentrations of SDM (dog No.2, OS i/m, 4 hours p.i.): 23 mg/L
- Serum concentrations of SDM (dog No.2, OS i/m, 7 hours p.i.): 35 mg/L
- Serum concentrations of SDM (dog No.2, OS i/m, 24 hours p.i.): 34 mg/L
- Serum concentrations of SDM (dog No.2, OS i/m, 28 hours p.i.): 31 mg/L
- Serum concentrations of SDM (dog No.2, OS i/m, 31 hours p.i.): 29 mg/L
- Serum concentrations of SDM (dog No.2, OS i/m, 48 hours p.i.): 35 mg/L
- Serum concentrations of SDM (dog No.2, OS i/m, 55 hours p.i.): 27 mg/L
- Serum concentrations of SDM (dog No.2, OS i/m, 72 hours p.i.): 6 mg/L
- Serum concentrations of SDM (dog No.3, GF s/c, 0 hours p.i.): 0 mg/L
- Serum concentrations of SDM (dog No.3, GF s/c, 1 hours p.i.): 21 mg/L
- Serum concentrations of SDM (dog No.3, GF s/c, 4 hours p.i.): 90 mg/L
- Serum concentrations of SDM (dog No.3, GF s/c, 7 hours p.i.): 99 mg/L
- Serum concentrations of SDM (dog No.3, GF s/c, 24 hours p.i.): 51 mg/L
- Serum concentrations of SDM (dog No.3, GF s/c, 28 hours p.i.): 40 mg/L
- Serum concentrations of SDM (dog No.3, GF s/c, 31 hours p.i.): 30 mg/L
- Serum concentrations of SDM (dog No.3, GF s/c, 48 hours p.i.): 19 mg/L
- Serum concentrations of SDM (dog No.3, GF s/c, 55 hours p.i.): 12 mg/L
- Serum concentrations of SDM (dog No.3, GF s/c, 72 hours p.i.): 21 mg/L
- Serum concentrations of SDM (dog No.4, OS i/m, 0 hours p.i.): 0 mg/L
- Serum concentrations of SDM (dog No.4, OS i/m, 1 hours p.i.): 7 mg/L
- Serum concentrations of SDM (dog No.4, OS i/m, 4 hours p.i.): 26 mg/L
- Serum concentrations of SDM (dog No.4, OS i/m, 7 hours p.i.): 36 mg/L
- Serum concentrations of SDM (dog No.4, OS i/m, 24 hours p.i.): 38 mg/L
- Serum concentrations of SDM (dog No.4, OS i/m, 28 hours p.i.): 37 mg/L
- Serum concentrations of SDM (dog No.4, OS i/m, 31 hours p.i.): 35 mg/L
- Serum concentrations of SDM (dog No.4, OS i/m, 48 hours p.i.): 26 mg/L
- Serum concentrations of SDM (dog No.4, OS i/m, 55 hours p.i.): 19 mg/L
- Serum concentrations of SDM (dog No.4, OS i/m, 72 hours p.i.): 10 mg/L
- Serum concentrations of SDM (dog No.5, OS i/m, 0 hours p.i.): 0 mg/L
- Serum concentrations of SDM (dog No.5, OS i/m, 1 hours p.i.): 12 mg/L
- Serum concentrations of SDM (dog No.5, OS i/m, 4 hours p.i.): 43 mg/L
- Serum concentrations of SDM (dog No.5, OS i/m, 7 hours p.i.): 53 mg/L
- Serum concentrations of SDM (dog No.5, OS i/m, 24 hours p.i.): 42 mg/L
- Serum concentrations of SDM (dog No.5, OS i/m, 28 hours p.i.): 41 mg/L
- Serum concentrations of SDM (dog No.5, OS i/m, 31 hours p.i.): 43 mg/L
- Serum concentrations of SDM (dog No.5, OS i/m, 48 hours p.i.): 34 mg/L
- Serum concentrations of SDM (dog No.5, OS i/m, 55 hours p.i.): 25 mg/L
- Serum concentrations of SDM (dog No.5, OS i/m, 72 hours p.i.): 20 mg/L
- Serum concentrations of SDM (dog No.6, GF s/c, 0 hours p.i.): 0 mg/L
- Serum concentrations of SDM (dog No.6, GF s/c, 1 hours p.i.): 26 mg/L
- Serum concentrations of SDM (dog No.6, GF s/c, 4 hours p.i.): 79 mg/L
- Serum concentrations of SDM (dog No.6, GF s/c, 7 hours p.i.): 94 mg/L
- Serum concentrations of SDM (dog No.6, GF s/c, 24 hours p.i.): 56 mg/L
- Serum concentrations of SDM (dog No.6, GF s/c, 28 hours p.i.): 47 mg/L
- Serum concentrations of SDM (dog No.6, GF s/c, 31 hours p.i.): 45 mg/L
- Serum concentrations of SDM (dog No.6, GF s/c, 48 hours p.i.): 34 mg/L
- Serum concentrations of SDM (dog No.6, GF s/c, 55 hours p.i.): 21 mg/L
- Serum concentrations of SDM (dog No.6, GF s/c, 72 hours p.i.): 10 mg/L
